In the NIST ThermoML archive (doi:10.1016/j.fluid.2008.03.004):

Experiment: xn = mol fraction of the nth substance listed
Conditions: 101 kPa, Liquid; for speed of sound: Sing-around technique in a fixed-path interferometer

CCOC(C)(C)C [2-ethoxy-2-methylpropane] + Cc1cccc(C)c1
Conditions | mass density [kg/m3] | speed of sound [m/s]
305.65 K, x1 = 0.05 | 847.026 | –
305.65 K, x1 = 0.099 | 840.74 | –
305.65 K, x1 = 0.2 | 828.116 | –
305.65 K, x1 = 0.3 | 815.278 | –
305.65 K, x1 = 0.4 | 802.699 | –
305.65 K, x1 = 0.497 | 790.26 | –
305.65 K, x1 = 0.598 | 777.566 | –
305.65 K, x1 = 0.698 | 765.236 | –
305.65 K, x1 = 0.8 | 752.76 | –
305.65 K, x1 = 0.898 | 740.246 | –
305.65 K, x1 = 0.95 | 733.801 | –
305.65 K, x1 = 1 | 727.038 | –
308.15 K, x1 = 0.05 | 844.847 | 1261.4
308.15 K, x1 = 0.099 | 838.542 | 1248.3
308.15 K, x1 = 0.2 | 825.874 | 1219
308.15 K, x1 = 0.3 | 812.993 | 1189.3
308.15 K, x1 = 0.4 | 800.369 | 1159.9
308.15 K, x1 = 0.497 | 787.887 | 1131
308.15 K, x1 = 0.598 | 775.147 | 1101.7
308.15 K, x1 = 0.698 | 762.77 | 1074.5
308.15 K, x1 = 0.8 | 750.245 | 1045.6
308.15 K, x1 = 0.898 | 737.68 | 1018.8
308.15 K, x1 = 0.95 | 731.212 | 1004.3
308.15 K, x1 = 1 | 724.443 | 986.39
310.65 K, x1 = 0.05 | 842.667 | 1251.2
310.65 K, x1 = 0.099 | 836.338 | 1238
310.65 K, x1 = 0.2 | 823.629 | 1208.6
310.65 K, x1 = 0.3 | 810.701 | 1178.8
310.65 K, x1 = 0.4 | 798.033 | 1149.3
310.65 K, x1 = 0.497 | 785.51 | 1120.3
310.65 K, x1 = 0.598 | 772.72 | 1091
310.65 K, x1 = 0.698 | 760.296 | 1063.7
310.65 K, x1 = 0.8 | 747.726 | 1034.7
310.65 K, x1 = 0.898 | 735.108 | 1007.8
310.65 K, x1 = 0.95 | 728.609 | 993.27
310.65 K, x1 = 1 | 721.826 | 975.42
313.15 K, x1 = 0.05 | 840.482 | 1241
313.15 K, x1 = 0.099 | 834.132 | 1227.8
313.15 K, x1 = 0.2 | 821.379 | 1198.3
313.15 K, x1 = 0.3 | 808.405 | 1168.3
313.15 K, x1 = 0.4 | 795.695 | 1138.9
313.15 K, x1 = 0.497 | 783.123 | 1109.8
313.15 K, x1 = 0.598 | 770.288 | 1080.4
313.15 K, x1 = 0.698 | 757.817 | 1053
313.15 K, x1 = 0.8 | 745.2 | 1024
313.15 K, x1 = 0.898 | 732.523 | 996.88
313.15 K, x1 = 0.95 | 726.007 | 982.39
313.15 K, x1 = 1 | 719.179 | 964.53
315.65 K, x1 = 0.05 | 838.29 | 1230.9
315.65 K, x1 = 0.099 | 831.922 | 1217.6
315.65 K, x1 = 0.2 | 819.125 | 1188
315.65 K, x1 = 0.3 | 806.105 | 1157.9
315.65 K, x1 = 0.4 | 793.351 | 1128.5
315.65 K, x1 = 0.497 | 780.733 | 1099.2
315.65 K, x1 = 0.598 | 767.848 | 1069.7
315.65 K, x1 = 0.698 | 755.328 | 1042.3
315.65 K, x1 = 0.8 | 742.656 | 1013.2
315.65 K, x1 = 0.898 | 729.931 | 985.99
315.65 K, x1 = 0.95 | 723.382 | 971.39
315.65 K, x1 = 1 | 716.527 | 953.54
318.15 K, x1 = 0.05 | 836.094 | 1220.7
318.15 K, x1 = 0.099 | 829.704 | 1207.4
318.15 K, x1 = 0.2 | 816.865 | 1177.8
318.15 K, x1 = 0.3 | 803.8 | 1147.6
318.15 K, x1 = 0.4 | 790.999 | 1118
318.15 K, x1 = 0.497 | 778.333 | 1088.7
318.15 K, x1 = 0.598 | 765.399 | 1059.2
318.15 K, x1 = 0.698 | 752.842 | 1031.8
318.15 K, x1 = 0.8 | 740.101 | 1002.4
318.15 K, x1 = 0.898 | 727.323 | 975.1
318.15 K, x1 = 0.95 | 720.743 | 960.42
318.15 K, x1 = 1 | 713.96 | 942.67
320.65 K, x1 = 0.05 | 833.892 | 1210.6
320.65 K, x1 = 0.099 | 827.484 | 1197.3
320.65 K, x1 = 0.2 | 814.602 | 1167.6
320.65 K, x1 = 0.3 | 801.489 | 1137.3
320.65 K, x1 = 0.4 | 788.639 | 1107.6
320.65 K, x1 = 0.497 | 775.926 | 1078.3
320.65 K, x1 = 0.598 | 762.944 | 1048.6
320.65 K, x1 = 0.698 | 750.335 | 1021.1
320.65 K, x1 = 0.8 | 737.539 | 991.66
320.65 K, x1 = 0.898 | 724.705 | 964.24
320.65 K, x1 = 0.95 | 718.093 | 949.5
320.65 K, x1 = 1 | 711.25 | 931.73
323.15 K, x1 = 0.05 | 831.689 | 1200.6
323.15 K, x1 = 0.099 | 825.258 | 1187.2
323.15 K, x1 = 0.2 | 812.331 | 1157.4
323.15 K, x1 = 0.3 | 799.17 | 1127
323.15 K, x1 = 0.4 | 786.273 | 1097.3
323.15 K, x1 = 0.497 | 773.51 | 1067.8
323.15 K, x1 = 0.598 | 760.487 | 1038.2
323.15 K, x1 = 0.698 | 747.817 | 1010.4
323.15 K, x1 = 0.8 | 734.964 | 980.96
323.15 K, x1 = 0.898 | 722.075 | 953.5
323.15 K, x1 = 0.95 | 715.433 | 938.66
323.15 K, x1 = 1 | 708.642 | 920.73
